1 compound from article PMC11022729 (Advanced Science, 2024) can be followed below.

The target of this experiment is histamine H1 receptor (Homo sapiens, UniProt P35367). As to the kind of experiment: [3H]-pyrilamine competition binding assay. Details: expressed in transfected cells; host or cells: CHO. On the procedure:
For membrane preparations of CHO cells stably expressing the human histamine H1 receptor (H1R), cells were washed and harvested with PBS buffer, homogenized by sonication (3 × 15 s) in ice‐cold HEPES‐H1R binding buffer (20 mM HEPES, 10 mM MgCl2, and 100 mM NaCl), followed by a centrifugation step (20 000 × g, 30 min, 4 °C). The resulting cell pellet was resuspended in binding buffer and homogenized using a hand potter. Membrane extracts were stored at −80 °C. Prior to use, the membranes were handled as described for D2R/D3R. […] Assays were performed at least in duplicates with appropriate concentrations between 0.1 nM and 100 µM of the test compound. […] The subsequent procedure was performed as described for D2R/D3R.

Sequence of histamine H1 receptor (P35367 whole entry): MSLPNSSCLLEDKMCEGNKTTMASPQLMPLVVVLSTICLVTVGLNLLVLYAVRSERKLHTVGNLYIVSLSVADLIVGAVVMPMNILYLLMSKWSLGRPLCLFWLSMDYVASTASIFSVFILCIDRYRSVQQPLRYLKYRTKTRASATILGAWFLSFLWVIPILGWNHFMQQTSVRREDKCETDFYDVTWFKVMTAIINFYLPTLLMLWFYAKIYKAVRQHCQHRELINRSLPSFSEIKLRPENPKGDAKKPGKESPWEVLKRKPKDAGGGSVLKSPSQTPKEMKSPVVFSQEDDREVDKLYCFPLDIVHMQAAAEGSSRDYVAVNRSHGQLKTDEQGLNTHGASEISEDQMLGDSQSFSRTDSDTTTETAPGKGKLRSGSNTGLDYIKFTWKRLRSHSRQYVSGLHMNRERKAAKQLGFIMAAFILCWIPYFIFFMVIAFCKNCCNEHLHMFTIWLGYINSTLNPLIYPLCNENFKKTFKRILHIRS

For `O=C(O)COCCN1CCN(C2=Nc3ccccc3Oc3ccc(Cl)cc32)CC1` [Compound 6], the “affinity for histamine H1 receptors” value was “low affinity”. Under “mean [CI 95%]”, this compound came in with a Ki of 575 nM.

For orientation: Ki means a dissociation constant, usually derived from enzyme kinetics or from competition with a known ligand.
